Columns and labels:
Format in all cases: cell-based, human
[1] = test system: BJ-TERT/LT/ST/RAS^V12 cells; assay: DNA fragmentation (DNA ladder)
[2] = test system: BJ-TERT/LT/ST/RAS^V12 cells; assay: Nuclear morphology assay; conditions: 18 hours
Source text: Applicants sought to characterize the type of cell death induced by CPT and erastin in tumorigenic BJ-TERT/LT/ST/RAS^V12 cells. […] To determine whether erastin or CPT induces apoptosis in their system, Applicants monitored the nuclear morphology of CPT- and erastin-treated tumorigenic cells using fluorescence microscopy. […] Since nuclear morphological change is required of apoptotic cells, Applicants conclude that cell death induced by erastin is non-apoptotic. […] Additionally, nuclei remained intact in erastin-treated tumor cells (FIG. 9).
200,000 tumorigenic BJ-TERT/LT/ST/RAS^V12 cells were seeded in 2 mL on glass coverslips in each well of a six-well dish, treated with nothing (NT), 9 μM erastin or 1.1 μM camptothecin (CPT) in growth medium for 18 hours while incubating at 37° C. with 5% CO2. Nuclei were stained with 25 μg/mL Hoechst 33342 (Molecular Probes) and viewed using an oil immersion 100× objective on a fluorescence microscope.

[3] = test system: active, cleaved form of caspase 3; assay: Western blot for active caspase-3; conditions: BJ-TERT/LT/ST/RAS^V12 cells
Experimental: BJ-TERT/LT/ST/RAS^V12 cells were seeded prior to the experiment at 5×10^5 cells in 60 mm dishes. The cells were treated with 5 μg/ml erastin (9 μM) for 2, 4, 6, 8 or 10 hours. One dish was maintained for camptothecin treatment (0.4 μg/ml for 24 h) as a positive control. Cells were lysed after each time point in lysis buffer (50 mM HEPES KOH pH […] NaCl, 2 mM EDTA, 0.5% Triton X-100, 1.5 mM Na3VO4, 50 mM NaF, 10 mM sodium pyrophosphate, 10 mM sodium beta-glycerophosphate and protease inhibitor tablet (Roche)). Protein content was quantified using a Biorad protein assay reagent. Equal amounts of protein were resolved on 16% SDS-polyacrylamide gel. The electrophoresed proteins were transblotted onto a PVDF membrane, blocked with 5% milk and incubated with anti-active caspase-3 polyclonal antibody (BD Pharmingen) at 1:1500 dilution overnight at 4° C. The membrane was then incubated in anti-rabbit-HRP (Santa Cruz Biotechnology) at 1:3000 dilution for 1 hour and developed with an enhanced chemiluminescence mixture (NEN life science, Renaissance). To test for equivalent loading in each lane, blots were stripped, blocked, and probed with an anti-eIF-4E antibody (BD Transduction laboratories) at 1:1000 dilution.

[4] = test system: BJ-TERT/LT/ST/RAS^V12 cells; assay: Block of compound-induced cell death by pan-caspase inhibitor; conditions: 50 μM Boc-Asp(Ome)-fluoromethyl ketone

CC[C@@]1(O)C(=O)OCc2c1cc1n(c2=O)Cc2cc3ccccc3nc2-1 [Camptothecin]
DNA fragmentation (formation of a DNA ladder) [1]: induces DNA fragmentation | fragmented nuclei, % of total nuclei ([2]; 1.1 μM camptothecin): 10-20% | nuclear morphology (karyorhexis and margination of chromatin) ([2]; 9 μM erastin or 1.1 μM CPT): karyorhexis and margination of chromatin were clearly visible | activated caspase 3 (western blot) [3]: harbor activated caspase 3 | cell death blocked by pan-caspase inhibitor [4]: partially blocked

Reference: patent publication US20050032124A1, “Identification of genotype-selective agents for treating Huntington's disease” (priority 2003, published 2005)
